In patent publication US8975417B2, “Pyrazolopyrrolidine derivatives and their use in the treatment of disease” (Novartis AG, priority 2013, dated 2015) one finds IC50 data, which are given here for 16 molecules.

Conditions in all cases: biochemical
The target in test [1] is His-Brd3(20-477) (Homo sapiens (Human), UniProt Q15059). The test is described as follows: TR-FRET in-vitro binding assay for BRD3. The protocol:
(§1) TR-FRET In-Vitro Binding Assays for BRD2, BRD3, and BRD4:
(§2) All assays were performed in 384-well microtiter plates. Each assay plate contained 8-point serial dilutions for 40 test compounds, plus 16 high- and 16 low controls. Liquid handling and incubation steps were done on an Innovadyne Nanodrop Express equipped with a robotic arm (Thermo CatX, Perkin Elmer/Caliper Twister II) and an incubator (Liconic STX40, Thermo Cytomat 2C450). The assay plates were prepared by addition of 50 nl per well of compound solution in 90% DMSO HummingBird nanodispenser (Zinsser Analytic). The assay was started by stepwise addition of 4.5 μL per well of bromo domain protein (50 mM HEPES, pH 7.5, 0.005% Tween20, 0.1% BSA, 50 mM NaCl, 45 nM His-Brd2(60-472) or 45 nM His-Brd3(20-477) or 45 nM His-Brd4(44-477) all proteins produced in-house) and 4.5 μL per well of peptide solution (50 mM HEPES, pH 7.5, 0.005% Tween20, 0.1% BSA, 50 mM NaCl, 60 nM acetyl-histone H4 (AcK 5, 8, 12, 16) (Biosyntan GmbH)). Reactions were incubated at 30° C. for 35 minutes. Subsequently 4.5 μL per well detection mix (50 mM HEPES, pH 7.5, 0.005% Tween20, 0.1% BSA, 50 mM NaCl, 3 nM Eu-labeled anti-His6 antibody, 21 nM streptavidin-allophycocyanin) were added. After minutes incubation at 30° C., plates were measured in a Perkin Elmer EnVision multilabel reader.
(§3) Test compounds were dissolved in DMSO (10 mM) and transferred into 1.4 mL flat bottom or V-shaped Matrix tubes carrying a unique 2D matrix. The stock solutions were stored at […] if not used immediately. For the test procedure the vials were defrosted and identified by a scanner whereby a working sheet was generated that guided the subsequent working steps. Compound dilutions were made in 96 well plates. This format enabled the assay of maximally […] at 8 concentrations (single points) including 4 reference compounds, if desired (known BET inhibitors from the prior art, for this and other assays of the type disclosed herein). The dilution protocol included the production of “pre-dilution plates”, “master plates” and “assay plates”.
(§4) Polypropylene 96-well plates were used as pre-dilution plates. […] All dilution steps were done on a HamiltonSTAR robot.
(§5) 30 μL of individual compound dilutions including standard compound and controls of the 4 “pre-dilution plates” were transferred into a 384-well “master plate” including the following concentrations 10000, […], 1000, 300, 100, 30, 10 and 3 μM, respectively in 90% of DMSO.
(§6) Identical “assay plates” were then prepared by pipetting 50 nL each of compound dilutions of the “master plates” into 384-well “assay plates” by means of a HummingBird 384-channel dispenser. These plates were used directly for the assay which was performed in a total volume of 13.55 μL.

Test [2] has as its target His-CREBBP (1081-1197) bromodomain (Homo sapiens (Human), UniProt Q92793). The test is described as follows: AlphaScreen in-vitro binding assay for CREBBP. The protocol: AlphaScreen In-Vitro Binding Assay for CREBBP
In order to assess bromodomain selectivity, we set up a binding assay using the bromodomain encoded by the CREBBP gene. […] Reactions were incubated at 30° C. for 35 minutes. Subsequently 4.5 μL per well detection mix (50 mM HEPES, pH 7.5, 0.005% Tween20, 0.02% BSA, 150 mM NaCl, 45 μg/ml Ni-chelate acceptor beads, 45 μg/mL streptavidin-donor beads) (Perkin Elmer)) were added. After 60 minutes incubation at room temperature, plates were measured in a Perkin Elmer EnVision multilabel reader. IC50 values were determined from percent inhibition values at different compound concentrations by non-linear regression analysis.
as §3, §4
These plates were used directly for the assay which was performed in a total volume of 13.55 μL.

Test [3] deals with His-Brd2(60-472) (Homo sapiens (Human), UniProt P25440). Description: TR-FRET in-vitro binding assay for BRD2. The protocol:
as §1, §2, §3, §4, §5, §6

In test [4] the target is His-Brd4(44-477) (Homo sapiens (Human), UniProt O60885). Description: TR-FRET in-vitro binding assay for BRD4. On the procedure:
as §1, §2, §3, §4, §5, §6

SMILES strings stand for the structures.

His-Brd2(60-472), sequence (P25440 60-472): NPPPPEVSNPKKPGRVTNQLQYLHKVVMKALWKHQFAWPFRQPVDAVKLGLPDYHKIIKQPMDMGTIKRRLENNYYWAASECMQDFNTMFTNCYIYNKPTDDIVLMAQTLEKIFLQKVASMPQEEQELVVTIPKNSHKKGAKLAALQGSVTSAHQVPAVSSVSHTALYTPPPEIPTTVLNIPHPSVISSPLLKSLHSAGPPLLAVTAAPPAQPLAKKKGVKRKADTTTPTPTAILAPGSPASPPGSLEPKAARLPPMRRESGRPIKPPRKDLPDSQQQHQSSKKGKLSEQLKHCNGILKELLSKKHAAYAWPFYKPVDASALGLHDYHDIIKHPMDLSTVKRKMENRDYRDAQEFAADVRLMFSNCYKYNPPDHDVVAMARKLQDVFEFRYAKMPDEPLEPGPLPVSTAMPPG
His-Brd3(20-477), sequence (Q15059 20-477): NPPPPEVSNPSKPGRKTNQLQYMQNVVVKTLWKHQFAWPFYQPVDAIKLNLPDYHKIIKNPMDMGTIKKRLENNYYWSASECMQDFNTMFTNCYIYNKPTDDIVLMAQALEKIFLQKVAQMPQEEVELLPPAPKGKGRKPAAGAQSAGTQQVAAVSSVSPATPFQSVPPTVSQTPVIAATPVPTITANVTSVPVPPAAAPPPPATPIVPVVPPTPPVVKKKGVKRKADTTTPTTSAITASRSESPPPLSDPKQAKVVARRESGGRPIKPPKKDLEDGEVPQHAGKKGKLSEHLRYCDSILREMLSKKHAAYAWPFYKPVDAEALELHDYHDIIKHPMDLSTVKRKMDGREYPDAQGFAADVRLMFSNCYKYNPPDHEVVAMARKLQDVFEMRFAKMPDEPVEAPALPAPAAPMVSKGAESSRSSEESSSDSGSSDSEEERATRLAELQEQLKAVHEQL
His-CREBBP (1081-1197) bromodomain, sequence (Q92793 1081-1197): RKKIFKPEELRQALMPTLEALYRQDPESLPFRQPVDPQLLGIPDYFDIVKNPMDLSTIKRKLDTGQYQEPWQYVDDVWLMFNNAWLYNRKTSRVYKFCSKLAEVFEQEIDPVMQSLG

For `Cc1nn(C2CC2)c2c1C(c1ccc(Cl)cc1)N(c1cc(Cl)c(=O)n(C)c1)C2=O` (racemic) [Example 24, 5-(5-chloro-1-methyl-6-oxo-1,6-dihydropyridin-3-yl)-4-(4-chlorophenyl)-1-cyclopropyl-3-methyl-4,5-dihydropyrrolo[3,4-c]pyrazol-6(1H)-one], the IC50 in test [1] was 150 nM; in test [2], 5900 nM; in test [3], 230 nM; in test [4], 150 nM.

Regarding `COCc1nn(C2CC2)c2c1C(c1ccc(Cl)cc1)N(c1cc(C)c(=O)n(C)c1)C2=O` (racemic) [Example 132, 4-(4-chlorophenyl)-1-cyclopropyl-5-(1,5-dimethyl-6-oxo-1,6-dihydropyridin-3-yl)-3-(methoxymethyl)-4,5-dihydropyrrolo[3,4-c]pyrazol-6(1H)-one], the IC50 was 89 nM in test [1], 4800 nM in test [2], 81 nM in test [3] and 67 nM in test [4].

Take `Cc1[nH]nc2c1C(c1ccc(Cl)cc1)N(c1cc(Cl)c(=O)n(C)c1)C2=O` (centres unmarked) [Example 5, 5-(5-chloro-1-methyl-6-oxo-1,6-dihydropyridin-3-yl)-4-(4-chlorophenyl)-3-methyl-4,5-dihydropyrrolo[3,4-c]pyrazol-6(2H)-one]: the IC50 was 370 nM in test [1], 5600 nM in test [2], 730 nM in test [3] and 360 nM in test [4].

With `Cc1c2c(nn1C)C(=O)N(c1cc(Cl)c(=O)n(C)c1)C2c1ccc(Cl)cc1` (centres unmarked) [Example 6, 5-(5-chloro-1-methyl-6-oxo-1,6-dihydropyridin-3-yl)-4-(4-chlorophenyl)-2,3-dimethyl-4,5-dihydropyrrolo[3,4-c]pyrazol-6(2H)-one], the IC50 in test [1] was 180 nM; in test [2], 3500 nM; in test [3], 350 nM; in test [4] it was 190 nM.

As to `Cc1c2c(nn1C1CC1)C(=O)N(c1cc(Cl)c(=O)n(C)c1)C2c1ccc(Cl)cc1` (centres unmarked) [Example 17, 5-(5-chloro-1-methyl-6-oxo-1,6-dihydropyridin-3-yl)-4-(4-chlorophenyl)-2-cyclopropyl-3-methyl-4,5-dihydropyrrolo[3,4-c]pyrazol-6(2H)-one], the IC50 worked out at 97 nM in test [1], 1300 nM in test [2], 180 nM in test [3] and 140 nM in test [4].

`Cc1cc(N2C(=O)c3nn(C4CC4)c(C)c3C2c2ccc(Cl)cc2)cn(C)c1=O` (centres unmarked) [Example 20, 4-(4-chlorophenyl)-2-cyclopropyl-5-(1,5-dimethyl-6-oxo-1,6-dihydropyridin-3-yl)-3-methyl-4,5-dihydropyrrolo[3,4-c]pyrazol-6(2H)-one]: the IC50 worked out at 77 nM in test [1], 1100 nM in test [2], 130 nM in test [3] and 88 nM in test [4].

Regarding `Cc1cc(N2C(=O)c3nn(C)c(C)c3C2c2ccc(Cl)cc2)cn(C)c1=O` (centres unmarked) [Example 28, 4-(4-chlorophenyl)-5-(1,5-dimethyl-6-oxo-1,6-dihydropyridin-3-yl)-2,3-dimethyl-4,5-dihydropyrrolo[3,4-c]pyrazol-6(2H)-one], the IC50 in test [1] was 160 nM; in test [2], 3300 nM; in test [3] it was 320 nM; in test [4] it was 140 nM.

Consider `Cc1noc2ccc(N3C(=O)c4nn(C)c(C)c4C3c3ccc(Cl)cc3)cc12` (centres unmarked) [Example 33, 4-(4-chlorophenyl)-2,3-dimethyl-5-(3-methylbenzo[d]isoxazol-5-yl)-4,5-dihydropyrrolo[3,4-c]pyrazol-6(2H)-one], for which the IC50 in test [1] was 920 nM; in test [2], over 37000 nM; in test [3], 1200 nM; in test [4], 700 nM.

Turning to `Cn1cc(N2C(=O)c3nn(C4CC4)cc3C2c2ccc(Cl)cc2)cc(Cl)c1=O` (centres unmarked) [Example 37, 5-(5-chloro-1-methyl-6-oxo-1,6-dihydropyridin-3-yl)-4-(4-chlorophenyl)-2-cyclopropyl-4,5-dihydropyrrolo[3,4-c]pyrazol-6(2H)-one], the IC50 in test [1] turned out to be 140 nM; in test [2], 1200 nM; in test [3], 140 nM; in test [4], 170 nM.

Regarding `CC(C)n1ncc2c1C(=O)N(c1cc(Cl)c(=O)n(C)c1)C2c1ccc(Cl)cc1` (centres unmarked) [Example 38, 5-(5-chloro-1-methyl-6-oxo-1,6-dihydropyridin-3-yl)-4-(4-chlorophenyl)-1-isopropyl-4,5-dihydropyrrolo[3,4-c]pyrazol-6(1H)-one], the IC50 worked out at 76 nM in test [1], 1900 nM in test [2], 49 nM in test [3] and 62 nM in test [4].

As to `Cn1cc(N2C(=O)c3nn(C4CC4)c(C(F)(F)F)c3C2c2ccc(Cl)cc2)cc(Cl)c1=O` (centres unmarked) [Example 40, 5-(5-chloro-1-methyl-6-oxo-1,6-dihydropyridin-3-yl)-4-(4-chlorophenyl)-2-cyclopropyl-3-(trifluoromethyl)-4,5-dihydropyrrolo[3,4-c]pyrazol-6(2H)-one], the IC50 in test [1] is 150 nM; in test [2], 740 nM; in test [3], 160 nM; in test [4] it was 220 nM.

On to `Cc1cc(N2C(=O)c3nn(C(C)C)cc3C2c2ccc(Cl)cc2)cn(C)c1=O` (centres unmarked) [Example 41, 4-(4-chlorophenyl)-5-(1,5-dimethyl-6-oxo-1,6-dihydropyridin-3-yl)-2-isopropyl-4,5-dihydropyrrolo[3,4-c]pyrazol-6(2H)-one], for which the IC50 came out at 85 nM in test [1], 380 nM in test [2], 75 nM in test [3] and 96 nM in test [4].

As for `CC(C)n1cc2c(n1)C(=O)N(c1cc(Cl)c(=O)n(C)c1)C2c1ccc(Cl)cc1` (centres unmarked) [Example 42, 5-(5-chloro-1-methyl-6-oxo-1,6-dihydropyridin-3-yl)-4-(4-chlorophenyl)-2-isopropyl-4,5-dihydropyrrolo[3,4-c]pyrazol-6(2H)-one], the IC50 was 89 nM in test [1], 450 nM in test [2], 91 nM in test [3] and 100 nM in test [4].

As for `Cc1cc(N2C(=O)c3nn(C4CC4)c(C(F)(F)F)c3C2c2ccc(Cl)cc2)cn(C)c1=O` (centres unmarked) [Example 43, 4-(4-chlorophenyl)-2-cyclopropyl-5-(1,5-dimethyl-6-oxo-1,6-dihydropyridin-3-yl)-3-(trifluoromethyl)-4,5-dihydropyrrolo[3,4-c]pyrazol-6(2H)-one], the IC50 came out at 110 nM in test [1], 660 nM in test [2], 100 nM in test [3] and 120 nM in test [4].

In the case of `Cc1nn(C2CC2)c2c1[C@H](c1ccc(Cl)cc1)N(c1cc(C)c(=O)n(C)c1)C2=O` [Example 48, (S)-4-(4-chlorophenyl)-1-cyclopropyl-5-(1,5-dimethyl-6-oxo-1,6-dihydropyridin-3-yl)-3-methyl-4,5-dihydropyrrolo[3,4-c]pyrazol-6(1H)-one], the IC50 in test [1] is over 6700 nM; in test [2] it was over 5100 nM; in test [3] it was over 6700 nM; in test [4], over 6700 nM.

`Cc1nn(C2CC2)c2c1[C@H](c1ccc(Cl)cc1)N(c1cc(Cl)c(=O)n(C)c1)C2=O` [Example 50, (S)-5-(5-chloro-1-methyl-6-oxo-1,6-dihydropyridin-3-yl)-4-(4-chlorophenyl)-1-cyclopropyl-3-methyl-4,5-dihydropyrrolo[3,4-c]pyrazol-6(1H)-one]: the IC50 in test [2] is over 5100 nM; in test [3] it was over 6700 nM.
